The source of these data is BindingDB's records for doi:10.1038/nchembio.1629 (George Washington University, 2014).

One test concerns the target T1, Aurora kinase C (Homo sapiens, UniProt Q9UQB9).
T1 sequence (Q9UQB9 whole entry): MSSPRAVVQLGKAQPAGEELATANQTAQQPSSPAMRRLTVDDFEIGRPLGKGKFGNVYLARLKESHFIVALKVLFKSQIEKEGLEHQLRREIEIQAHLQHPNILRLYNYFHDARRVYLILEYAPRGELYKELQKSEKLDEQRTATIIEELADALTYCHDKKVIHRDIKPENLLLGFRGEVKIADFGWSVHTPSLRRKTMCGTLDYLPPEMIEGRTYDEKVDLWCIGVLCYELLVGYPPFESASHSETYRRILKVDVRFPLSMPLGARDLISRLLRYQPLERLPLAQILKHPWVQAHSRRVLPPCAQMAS
Description: Selectivity screening. On the procedure: (§1) The IC50 values of selected kinases were determined using either Z'LYTE, Adapta or LanthaScreen assays.

Test [1] concerns the target Casein kinase II subunit alpha' (Homo sapiens, UniProt P19784). The experiment in a line: Selectivity screening. On the procedure:
as §1

In test [2] the target is T2, Dual specificity mitogen-activated protein kinase kinase 3 (Homo sapiens, UniProt P46734).
T2 sequence (P46734 whole entry): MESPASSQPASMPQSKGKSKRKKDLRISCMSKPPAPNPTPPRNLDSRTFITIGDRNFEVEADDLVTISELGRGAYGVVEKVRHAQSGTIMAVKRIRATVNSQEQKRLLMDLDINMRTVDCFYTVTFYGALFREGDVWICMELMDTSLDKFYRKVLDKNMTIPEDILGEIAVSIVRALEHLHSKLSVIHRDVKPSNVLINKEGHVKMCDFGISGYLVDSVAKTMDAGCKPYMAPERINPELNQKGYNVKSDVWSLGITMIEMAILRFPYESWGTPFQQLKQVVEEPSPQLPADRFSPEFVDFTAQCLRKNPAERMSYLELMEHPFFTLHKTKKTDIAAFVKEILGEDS
The experiment in a line: Selectivity screening. On the procedure: as §1

Test [3] addresses Dual specificity protein kinase CLK1 (Homo sapiens, UniProt P49759). The experiment in a line: Selectivity screening. On the procedure: as §1
The target in test [4] is Dual specificity protein kinase CLK2 (Homo sapiens, UniProt P49760). Description: Selectivity screening. On the procedure:
as §1

Test [5] deals with T3, Dual specificity protein kinase TTK (Homo sapiens, UniProt P33981).
T3 sequence (P33981 whole entry): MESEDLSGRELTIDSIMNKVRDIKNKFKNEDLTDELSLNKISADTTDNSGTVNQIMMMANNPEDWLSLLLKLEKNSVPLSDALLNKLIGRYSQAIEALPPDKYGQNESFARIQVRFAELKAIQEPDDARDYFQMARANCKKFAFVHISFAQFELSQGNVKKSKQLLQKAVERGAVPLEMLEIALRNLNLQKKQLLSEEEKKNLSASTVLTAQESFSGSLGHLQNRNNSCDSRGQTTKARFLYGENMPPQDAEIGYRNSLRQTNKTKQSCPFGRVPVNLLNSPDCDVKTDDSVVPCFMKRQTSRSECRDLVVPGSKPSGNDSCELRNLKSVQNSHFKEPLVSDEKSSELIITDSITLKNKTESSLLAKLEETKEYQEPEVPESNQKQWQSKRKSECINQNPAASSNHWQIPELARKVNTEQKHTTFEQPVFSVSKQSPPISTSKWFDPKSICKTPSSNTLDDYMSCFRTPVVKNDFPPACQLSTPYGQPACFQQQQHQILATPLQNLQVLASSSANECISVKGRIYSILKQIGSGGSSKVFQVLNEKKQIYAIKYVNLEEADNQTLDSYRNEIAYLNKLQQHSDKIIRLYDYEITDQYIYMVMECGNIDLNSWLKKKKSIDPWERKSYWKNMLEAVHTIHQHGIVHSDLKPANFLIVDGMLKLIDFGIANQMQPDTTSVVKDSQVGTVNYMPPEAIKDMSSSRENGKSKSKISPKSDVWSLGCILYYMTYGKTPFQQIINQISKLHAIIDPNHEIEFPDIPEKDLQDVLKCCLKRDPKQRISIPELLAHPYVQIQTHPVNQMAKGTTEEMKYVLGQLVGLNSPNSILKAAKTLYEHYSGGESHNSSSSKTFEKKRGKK
Description: Selectivity screening. How it is done: as §1

A further test addresses Misshapen-like kinase 1 (Homo sapiens, UniProt Q8N4C8). The experiment in a line: Selectivity screening. On the procedure: as §1
Test [6] addresses Mitogen-activated protein kinase 10 (Homo sapiens, UniProt P53779). The experiment in a line: Selectivity screening. How it is done: as §1
In test [7] the target is T4, Mitogen-activated protein kinase 3 (Homo sapiens, UniProt P27361). The experiment in a line: Selectivity screening. On the procedure: as §1
Test [8] addresses T5, Mitogen-activated protein kinase 8 [1-363] (Homo sapiens, UniProt P45983).
T5 construct: 1-363
Description: Selectivity screening. How it is done: as §1

Test [9] has as its target Mitogen-activated protein kinase 9 (Homo sapiens, UniProt P45984). The experiment in a line: Selectivity screening. On the procedure: as §1
The target of test [10] is Mitogen-activated protein kinase kinase kinase kinase 4 (Homo sapiens, UniProt O95819). The experiment in a line: Selectivity screening. How it is done:
as §1

Test [11] addresses T6, Serine/threonine-protein kinase 17A (Homo sapiens, UniProt Q9UEE5).
T6 sequence (Q9UEE5 whole entry): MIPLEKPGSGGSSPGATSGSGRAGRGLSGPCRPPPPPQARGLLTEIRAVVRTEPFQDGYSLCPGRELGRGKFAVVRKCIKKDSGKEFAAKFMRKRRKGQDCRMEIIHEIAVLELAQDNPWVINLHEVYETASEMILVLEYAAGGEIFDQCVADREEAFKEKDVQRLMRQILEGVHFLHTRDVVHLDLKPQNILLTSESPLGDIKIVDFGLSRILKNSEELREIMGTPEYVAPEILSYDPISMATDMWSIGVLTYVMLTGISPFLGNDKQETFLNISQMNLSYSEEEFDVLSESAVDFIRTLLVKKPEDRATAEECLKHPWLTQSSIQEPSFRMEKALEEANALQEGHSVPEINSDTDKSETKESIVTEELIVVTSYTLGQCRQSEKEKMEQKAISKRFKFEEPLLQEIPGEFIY
The experiment in a line: Selectivity screening. On the procedure: as §1

In test [12] the target is T7, Serine/threonine-protein kinase D1 (Homo sapiens, UniProt Q15139).
T7 sequence (Q15139 whole entry): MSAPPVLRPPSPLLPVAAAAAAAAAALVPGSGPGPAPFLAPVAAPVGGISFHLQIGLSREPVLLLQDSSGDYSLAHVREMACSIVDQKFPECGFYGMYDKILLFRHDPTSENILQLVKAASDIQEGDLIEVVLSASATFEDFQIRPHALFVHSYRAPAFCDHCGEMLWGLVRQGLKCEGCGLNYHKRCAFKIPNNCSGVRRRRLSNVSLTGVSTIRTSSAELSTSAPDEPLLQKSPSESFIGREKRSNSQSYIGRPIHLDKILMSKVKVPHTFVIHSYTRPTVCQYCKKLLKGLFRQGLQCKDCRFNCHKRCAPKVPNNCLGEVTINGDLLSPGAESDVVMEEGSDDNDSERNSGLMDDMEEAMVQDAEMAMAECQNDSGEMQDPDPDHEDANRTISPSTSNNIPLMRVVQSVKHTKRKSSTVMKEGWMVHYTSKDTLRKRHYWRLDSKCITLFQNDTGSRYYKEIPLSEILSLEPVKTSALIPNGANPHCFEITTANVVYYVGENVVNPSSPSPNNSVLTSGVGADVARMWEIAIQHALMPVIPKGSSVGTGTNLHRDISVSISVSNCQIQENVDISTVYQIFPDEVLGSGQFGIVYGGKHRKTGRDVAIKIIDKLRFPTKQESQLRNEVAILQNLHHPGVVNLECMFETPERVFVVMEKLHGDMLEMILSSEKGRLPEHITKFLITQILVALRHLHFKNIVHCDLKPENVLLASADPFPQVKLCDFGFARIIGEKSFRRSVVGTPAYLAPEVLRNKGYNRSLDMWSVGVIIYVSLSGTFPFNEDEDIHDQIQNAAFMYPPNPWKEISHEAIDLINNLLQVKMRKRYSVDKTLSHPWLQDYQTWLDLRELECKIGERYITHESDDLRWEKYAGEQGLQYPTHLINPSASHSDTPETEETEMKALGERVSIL
Description: Selectivity screening. On the procedure: as §1

Test [13] has as its target T8, Serine/threonine-protein kinase haspin [465-798] (Homo sapiens, UniProt Q8TF76).
T8 construct: 465-798
T8 sequence (Q8TF76 whole entry): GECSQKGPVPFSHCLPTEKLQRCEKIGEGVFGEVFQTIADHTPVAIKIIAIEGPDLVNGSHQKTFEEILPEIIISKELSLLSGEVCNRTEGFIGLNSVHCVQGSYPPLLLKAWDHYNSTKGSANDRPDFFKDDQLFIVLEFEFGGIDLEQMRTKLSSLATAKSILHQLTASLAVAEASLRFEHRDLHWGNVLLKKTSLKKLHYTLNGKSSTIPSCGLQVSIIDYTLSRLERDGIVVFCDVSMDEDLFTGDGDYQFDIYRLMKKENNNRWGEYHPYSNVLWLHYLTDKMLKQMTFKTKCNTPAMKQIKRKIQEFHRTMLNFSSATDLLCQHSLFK
The experiment in a line: Selectivity screening. On the procedure:
as §1

Test [14] concerns the target T4, Mitogen-activated protein kinase 3. The experiment in a line: ITC. Conditions: pH 7.5; 15 °C. How it is done: (§2) For ERK1 and ERK2, the buffer contained 20 mM HEPES (pH 7.5), 150 mM NaCl and 0.5 mM TCEP. For haspin, the buffer contained 20 mM HEPES (pH 7.5), 250 mM NaCl and 0.5 mM TCEP. Titration was performed at 15 °C by injecting 100 µM protein into a reaction cell containing the inhibitors (7 µM).

Test [15] deals with T8, Serine/threonine-protein kinase haspin [465-798]. The experiment in a line: ITC. The note with it: pH 7.5; 15 °C. How it is done:
as §2

T4 sequence (P27361 whole entry): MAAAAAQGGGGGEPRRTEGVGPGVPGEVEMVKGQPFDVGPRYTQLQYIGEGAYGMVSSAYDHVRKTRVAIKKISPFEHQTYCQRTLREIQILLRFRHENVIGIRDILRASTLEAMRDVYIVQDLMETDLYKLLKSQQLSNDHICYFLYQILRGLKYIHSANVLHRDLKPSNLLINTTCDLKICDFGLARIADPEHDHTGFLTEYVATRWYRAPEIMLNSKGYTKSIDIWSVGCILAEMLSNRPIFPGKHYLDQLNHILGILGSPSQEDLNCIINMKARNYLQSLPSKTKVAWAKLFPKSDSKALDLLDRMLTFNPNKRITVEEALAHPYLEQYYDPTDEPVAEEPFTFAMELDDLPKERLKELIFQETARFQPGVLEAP
Sequence of Misshapen-like kinase 1 (Q8N4C8 whole entry): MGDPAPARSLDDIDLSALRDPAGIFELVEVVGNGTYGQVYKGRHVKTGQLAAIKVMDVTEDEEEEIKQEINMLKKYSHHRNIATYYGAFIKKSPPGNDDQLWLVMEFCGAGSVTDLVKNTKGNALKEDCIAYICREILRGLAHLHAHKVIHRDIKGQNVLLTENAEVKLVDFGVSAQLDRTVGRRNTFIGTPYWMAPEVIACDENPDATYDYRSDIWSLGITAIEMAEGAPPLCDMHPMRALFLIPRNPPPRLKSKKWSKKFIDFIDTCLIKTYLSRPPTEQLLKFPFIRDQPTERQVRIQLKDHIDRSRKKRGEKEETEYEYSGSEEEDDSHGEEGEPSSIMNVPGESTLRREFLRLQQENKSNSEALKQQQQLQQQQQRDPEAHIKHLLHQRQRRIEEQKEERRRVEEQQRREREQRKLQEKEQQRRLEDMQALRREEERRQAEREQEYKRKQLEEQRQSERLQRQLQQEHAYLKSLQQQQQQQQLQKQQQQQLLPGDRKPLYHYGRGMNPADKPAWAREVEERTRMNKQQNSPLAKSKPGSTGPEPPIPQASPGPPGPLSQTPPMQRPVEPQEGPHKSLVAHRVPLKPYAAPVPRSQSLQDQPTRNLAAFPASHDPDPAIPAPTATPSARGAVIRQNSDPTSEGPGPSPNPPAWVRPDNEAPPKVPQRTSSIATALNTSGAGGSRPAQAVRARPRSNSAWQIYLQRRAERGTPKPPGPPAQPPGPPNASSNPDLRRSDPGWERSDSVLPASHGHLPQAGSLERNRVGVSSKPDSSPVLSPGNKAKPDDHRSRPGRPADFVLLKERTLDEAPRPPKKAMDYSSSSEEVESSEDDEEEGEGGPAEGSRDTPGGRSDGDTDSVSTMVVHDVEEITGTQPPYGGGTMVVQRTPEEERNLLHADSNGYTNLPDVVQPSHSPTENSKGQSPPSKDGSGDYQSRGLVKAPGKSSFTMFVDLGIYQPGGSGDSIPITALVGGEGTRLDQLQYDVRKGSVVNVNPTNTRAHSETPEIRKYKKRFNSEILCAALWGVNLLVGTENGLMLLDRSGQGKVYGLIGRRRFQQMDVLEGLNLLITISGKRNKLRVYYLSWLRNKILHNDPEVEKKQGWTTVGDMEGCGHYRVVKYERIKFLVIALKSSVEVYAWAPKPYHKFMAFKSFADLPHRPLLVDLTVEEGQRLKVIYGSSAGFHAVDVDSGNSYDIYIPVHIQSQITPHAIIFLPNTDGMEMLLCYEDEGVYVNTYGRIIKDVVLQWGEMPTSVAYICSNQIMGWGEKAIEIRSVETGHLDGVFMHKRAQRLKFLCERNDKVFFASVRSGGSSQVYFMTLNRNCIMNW
Sequence of Mitogen-activated protein kinase 10 (P53779 whole entry): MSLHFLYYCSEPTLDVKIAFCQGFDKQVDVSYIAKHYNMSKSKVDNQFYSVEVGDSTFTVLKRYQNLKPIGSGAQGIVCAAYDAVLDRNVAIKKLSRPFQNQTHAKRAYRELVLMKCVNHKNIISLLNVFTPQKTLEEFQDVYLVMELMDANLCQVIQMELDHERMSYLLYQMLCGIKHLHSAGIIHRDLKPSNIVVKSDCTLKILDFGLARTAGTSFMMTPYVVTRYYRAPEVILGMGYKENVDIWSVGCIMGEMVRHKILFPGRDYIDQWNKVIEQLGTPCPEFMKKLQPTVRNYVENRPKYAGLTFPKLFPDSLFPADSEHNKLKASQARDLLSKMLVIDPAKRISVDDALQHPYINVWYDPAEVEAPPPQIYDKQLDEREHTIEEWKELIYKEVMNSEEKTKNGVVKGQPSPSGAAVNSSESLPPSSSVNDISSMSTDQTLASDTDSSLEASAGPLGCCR
T5 sequence (P45983 1-363): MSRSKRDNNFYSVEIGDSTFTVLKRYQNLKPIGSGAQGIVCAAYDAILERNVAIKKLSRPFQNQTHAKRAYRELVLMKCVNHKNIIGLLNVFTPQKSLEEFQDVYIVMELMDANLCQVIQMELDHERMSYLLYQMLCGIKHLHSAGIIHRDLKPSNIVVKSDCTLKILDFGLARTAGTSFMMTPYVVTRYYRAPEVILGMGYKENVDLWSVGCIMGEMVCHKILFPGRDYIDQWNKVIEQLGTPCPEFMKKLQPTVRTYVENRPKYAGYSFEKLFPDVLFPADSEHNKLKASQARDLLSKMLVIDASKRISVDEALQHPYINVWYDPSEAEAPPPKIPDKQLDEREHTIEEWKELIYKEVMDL
Sequence of Mitogen-activated protein kinase 9 (P45984 whole entry): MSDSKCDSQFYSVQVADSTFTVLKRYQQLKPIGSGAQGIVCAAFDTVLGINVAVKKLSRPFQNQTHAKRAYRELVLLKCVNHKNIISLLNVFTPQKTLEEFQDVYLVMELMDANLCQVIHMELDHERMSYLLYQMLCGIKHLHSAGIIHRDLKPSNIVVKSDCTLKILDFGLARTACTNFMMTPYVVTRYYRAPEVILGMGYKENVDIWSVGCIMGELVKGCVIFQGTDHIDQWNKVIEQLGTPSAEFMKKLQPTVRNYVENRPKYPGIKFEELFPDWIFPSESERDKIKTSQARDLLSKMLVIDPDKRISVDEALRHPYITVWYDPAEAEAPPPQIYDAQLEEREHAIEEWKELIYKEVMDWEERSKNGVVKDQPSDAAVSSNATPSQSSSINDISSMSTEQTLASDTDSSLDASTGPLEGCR
Sequence of Casein kinase II subunit alpha' (P19784 whole entry): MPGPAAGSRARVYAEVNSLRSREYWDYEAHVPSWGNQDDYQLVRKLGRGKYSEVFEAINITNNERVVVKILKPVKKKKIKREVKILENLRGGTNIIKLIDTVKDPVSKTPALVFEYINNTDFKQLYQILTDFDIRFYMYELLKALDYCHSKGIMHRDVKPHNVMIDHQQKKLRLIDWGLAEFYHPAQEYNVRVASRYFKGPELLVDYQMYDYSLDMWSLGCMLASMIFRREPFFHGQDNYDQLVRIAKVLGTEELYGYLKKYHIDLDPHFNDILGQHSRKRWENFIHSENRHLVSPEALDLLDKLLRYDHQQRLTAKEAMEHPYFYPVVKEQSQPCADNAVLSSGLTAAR
Sequence of Dual specificity protein kinase CLK2 (P49760 whole entry): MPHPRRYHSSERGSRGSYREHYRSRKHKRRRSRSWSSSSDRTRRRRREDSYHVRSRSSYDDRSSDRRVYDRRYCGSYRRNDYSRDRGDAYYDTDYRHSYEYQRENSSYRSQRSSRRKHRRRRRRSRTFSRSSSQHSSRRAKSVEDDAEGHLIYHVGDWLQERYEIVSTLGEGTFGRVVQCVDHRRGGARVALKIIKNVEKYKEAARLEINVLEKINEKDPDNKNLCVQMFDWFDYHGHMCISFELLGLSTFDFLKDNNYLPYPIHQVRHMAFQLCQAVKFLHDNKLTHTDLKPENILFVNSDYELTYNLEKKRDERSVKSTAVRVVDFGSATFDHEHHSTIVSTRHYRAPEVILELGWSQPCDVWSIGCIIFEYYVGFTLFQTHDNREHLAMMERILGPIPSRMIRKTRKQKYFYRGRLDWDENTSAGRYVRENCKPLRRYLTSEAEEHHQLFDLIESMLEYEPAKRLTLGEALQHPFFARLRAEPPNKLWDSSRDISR
Sequence of Dual specificity protein kinase CLK1 (P49759 whole entry): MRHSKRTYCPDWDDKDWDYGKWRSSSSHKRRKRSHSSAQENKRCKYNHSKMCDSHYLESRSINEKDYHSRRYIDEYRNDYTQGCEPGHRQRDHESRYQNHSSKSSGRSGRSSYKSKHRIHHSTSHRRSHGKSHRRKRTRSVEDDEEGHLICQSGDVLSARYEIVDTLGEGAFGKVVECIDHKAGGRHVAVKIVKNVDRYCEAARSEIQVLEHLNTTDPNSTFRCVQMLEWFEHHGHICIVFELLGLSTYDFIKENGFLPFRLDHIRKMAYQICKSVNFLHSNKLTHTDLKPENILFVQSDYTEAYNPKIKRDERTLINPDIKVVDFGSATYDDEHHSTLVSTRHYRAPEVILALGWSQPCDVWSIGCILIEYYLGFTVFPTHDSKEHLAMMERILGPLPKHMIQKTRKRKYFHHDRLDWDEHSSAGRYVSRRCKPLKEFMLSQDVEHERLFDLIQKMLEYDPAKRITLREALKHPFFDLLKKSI

Turning to `O=C(Nc1ccc2[nH]nc(-c3ccncc3)c2c1)[C@H]1CCN(CC(=O)N2CCN(c3ccc(-c4ncccn4)cc3)CC2)C1` [SCH772984], the half-inhibitory concentration (IC50) (commonly the point on the concentration scale where inhibition reaches its midpoint) is 580 nM on Aurora kinase C; over 10000 nM in [1]; 304 nM in test [2]; 508 nM in [3]; 104 nM in test [4]; 193 nM in [5]. Moreover, the IC50 against Misshapen-like kinase 1 was determined as 942 nM; in test [6], 632 nM; in [7], 8.3 nM; in test [8], 1080 nM; in test [9], 783 nM; in [10], 503 nM. The results for the IC50 in [11], in [12] and in [13] were 114 nM, 535 nM and 398 nM, respectively. Besides, the Kd – broadly, a measure of binding affinity in units of concentration – in test [14] came out at 213 nM; in test [15], 297 nM.
